Tests used:
[1] = Cytotoxicity against mouse Microglia cells assessed as reduction in cell viability; type: toxicity, cell-based
Microglia = test: Anti-inflammatory activity against mouse Microglia cells assessed as reduction in LPS-induced IL-1beta production; type: functional, cell-based

IC50 (Microglia)	Compound	CC50 [1]
54.2 µM	C=C1[C@@H]2[C@H]3OC(=O)[C@@H](C)[C@@H]3[C@@H](O)CC(=C)[C@@H]2C[C@@H]1O	> 100 µM
86.7 µM	C=C1[C@@H]2[C@H]3OC(=O)[C@@H](CN4C=C(C(N)=O)C[C@@H](CO)C4=O)[C@@H]3[C@@H](O)CC(=C)[C@@H]2C[C@@H]1O	> 100 µM
44.5 µM	C=C1[C@@H]2[C@H]3OC(=O)[C@@H](C)[C@@H]3[C@@H](O[C@@H]3O[C@H](CO)[C@@H](O)[C@H](O)[C@H]3O)CC(=C)[C@@H]2C[C@@H]1O	> 100 µM
62.6 µM	C=C1[C@@H]2[C@H]3OC(=O)[C@@H](CNC(=O)[C@H](CO)CN4CCC[C@H]4C(=O)O)[C@@H]3[C@@H](O)CC(=C)[C@@H]2C[C@@H]1O	> 100 µM
